Here are results for 16 compounds from patent publication US8912227B1, “Bicyclic pyrrole derivatives useful as agonists of GPR120” (Janssen Pharmaceutica NV, priority 2014, dated 2014).

pEC50: −log10 of the molar value.

Holding throughout (assay type): cell-based
Assay [1] deals with T1, long form of human GPR120 (Homo sapiens, UniProt Q5NUL3).
T1 construct: host or cells: PathHunter CHO-K1 GPR120 β-Arrestin Cell Line
Kind of assay: Human GPR120 DiscoveRx PathHunter β-Arrestin assay, Procedure β-arrestin A. The settings on record: PathHunter CHO-K1 GPR120 β-Arrestin cell line, 3000 cells per well. The essentials: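 PathHunter CHO-K1 β-arrestin cells (NM_181745 construct) were plated at 3000/well overnight, then held 60 min in HBSS/20 mM HEPES/0.1% BSA, pH 7.4. Compounds (dilution series 25–0.012 µM before addition) were added for 90 min at 37 °C, followed by 60 min RT luminescence detection. EC50 was fitted from % of positive control with Hill slope fixed at 1.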

Assay [2] has as its target T2, Human GPR120 short form (Homo sapiens, UniProt Q5NUL3).
T2 construct: expressed in transfected cells
T2 sequence (Q5NUL3 1-361): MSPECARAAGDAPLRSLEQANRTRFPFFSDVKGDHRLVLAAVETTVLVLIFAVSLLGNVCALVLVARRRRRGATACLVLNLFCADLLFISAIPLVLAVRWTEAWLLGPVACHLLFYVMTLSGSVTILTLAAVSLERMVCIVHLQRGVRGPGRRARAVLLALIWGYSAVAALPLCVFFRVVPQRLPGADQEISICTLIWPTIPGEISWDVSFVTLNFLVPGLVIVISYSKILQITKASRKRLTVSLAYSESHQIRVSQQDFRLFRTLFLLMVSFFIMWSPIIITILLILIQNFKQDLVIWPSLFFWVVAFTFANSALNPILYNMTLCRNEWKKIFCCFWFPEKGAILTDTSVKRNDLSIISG
In words: Human GPR120 calcium flux assay, Procedure Calcium A. Particulars: HEK-293 cells expressing human GPR120 short form, 2500 cells/well, FLIPR. The method, boiled down:
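HEK293 cells stably expressing the human GPR120 short splice variant (NM_001195755.1) were seeded at 2500 cells/well, serum-starved 1 h and loaded with Fluo-4 NW plus probenecid. Compounds (100–0.012 μM solutions, 0.2% final DMSO) were added, and FLIPR calcium flux was read for 300 s. EC50 came from a variable-slope fit (Hill <2) of Fmax−Fmin.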
(In general: Calcium assays in cells follow changes in intracellular calcium, usually with a dye or a luminescent sensor.)

Assay [3] addresses T2, Human GPR120 short form. In words: Human GPR120 calcium flux assay, Procedure Calcium B. Particulars: HEK-293 cells expressing human GPR120 short form, 4200 cells/well, FLIPR.
Assay [4] has as its target T3, short form of the GPR120 receptor (Homo sapiens, UniProt Q5NUL3).
T3 construct: host or cells: PathHunter CHO-K1 GPR120S β-Arrestin Cell Line
Kind of assay: Human GPR120 DiscoveRx PathHunter β-Arrestin assay, Procedure β-arrestin B. The settings on record: PathHunter CHO-K1 GPR120S β-Arrestin cell line, 5000 cells/well. The source says: The binding of an agonist (medium/long chain fatty acids or small molecule agonists) to the G-protein-coupled receptor GPR120 activates phospholipase C, leading to release of intracellular Ca^+2 through the generation of inositol 1,4,5-trisphosphate (InsP3 or IP3). GPR120 activation can also trigger intracellular signaling via recruitment of β-Arrestin. In the present method, agonist-induced activation of the human GPR120 receptor is monitored through the use of PathHunter CHO-K1 GPR120 β-Arrestin Cell Line engineered by DiscoveRx, as detailed below. The cell lines are designed to co-express both the ProLink/Enzyme Donor (PK)-tagged GPCR and the Enzyme […] (EA)-tagged Beta-Arrestin fusion proteins. Upon GPR120 receptor stimulation/activation, the EA-tagged β-Arrestin portion is translocated to the tagged receptor, where the two enzyme fragments are brought within close proximity. Under these conditions, these fragments can interact and form an active Beta-gal enzyme complex through Enzyme Fragment Complementation (EFC). This active Beta-gal complex can enzymatically hydrolyse the substrate to produce a detectable light signal; therefore, activation as a function of agonist concentration can be expressed as an EC50 value to determine relative compound activities. This in vitro assay therefore serves to assess compound agonist activity of the GPR120.
In Procedure β-arrestin B the cells used were PathHunter CHO-K1 GPR120S β-Arrestin Cell Line, expressing the short form of the GPR120 receptor (Accession #NM_181745), with 5000 cells/well.
The selected CHO-K1 GPR120 β-Arrestin cells were cultured in Ham's F12 media supplemented with 10% fetal bovine serum (FBS), 1% Glutamine, 1×p/s, 800 μg/ml G418 and 300 μg/ml Hygromycin B (for selection). Cell stocks were maintained and grown in a sub-confluent state using standard cell culture procedures. The day before the experiment, the cells were harvested with non-enzymatic cell dissociation buffer and re-suspended in complete growth media at the desired concentration. A Corning 384-plate was then seeded with the proper number of cells in a volume of 25 μL, per well. The seeded plates were incubated overnight at 37° C.
On the day of the experiment, the Assay Buffer containing (a) HBSS with Ca^++ and Mg^++, (b) 20 mM HEPES, and (c) 0.1% BSA stabilizer (pH 7.4) was prepared. The growth medium was gently removed from the cell plates and 20 μL of Assay Buffer added to each well. The plate was then incubated at 37° C. for 60 mins. Test compounds were serially diluted in Assay Buffer to desired concentrations (more particularly, to one or more of the following μM concentrations: 25 μM, 12.5 μM, 6.25 μM, 3.125 μM, 1.562 μM, 0.781 μM, 0.391 μM, 0.195 μM, 0.098 μM, 0.049 μM, 0.024 μM, 0.012 μM). Five μl of compound dilution was then added to each well and the plate incubated at 37° C. for 90 mins. The detection reagents were prepared according to the manufacture's instruction. Twelve μL of the detection reagents were added to each well and the plate incubated at room temperature for 60 mins.
The plates were read on an EnVision instrument, using Protocol name: Luminescence, Plate type: 384 Costar, Measurement height: 3 mm, Measurement time: 1 s, Aperture: 384 Plate aperture. The % activity relative to the positive control was calculated using the following equation:
The % Activity values were plotted versus the concentration of test compound and fitted to a sigmoidal dose-response curve with a Hill slope=1 (fixed value) using nonlinear regression with GraphPad Prism 5.0 to calculate the EC50 values. The Fitting Equation was: Y=Bottom+(Top−Bottom)/(1+10^((LogEC50−X)*HillSlope)), where X is the log of the concentration and Y is the response.

T1 sequence (Q5NUL3 1-377 isoform Q5NUL3-1): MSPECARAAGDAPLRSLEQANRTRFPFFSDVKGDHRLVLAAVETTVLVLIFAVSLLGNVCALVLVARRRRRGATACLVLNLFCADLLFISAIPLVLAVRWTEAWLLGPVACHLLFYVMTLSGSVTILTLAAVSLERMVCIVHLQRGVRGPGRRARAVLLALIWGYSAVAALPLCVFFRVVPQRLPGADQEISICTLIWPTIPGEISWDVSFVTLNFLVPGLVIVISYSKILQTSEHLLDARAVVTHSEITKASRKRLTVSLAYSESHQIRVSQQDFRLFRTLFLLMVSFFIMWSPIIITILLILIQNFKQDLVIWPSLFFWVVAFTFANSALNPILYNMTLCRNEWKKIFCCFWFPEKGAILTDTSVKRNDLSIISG
T1 sequence (P32121 whole entry partner): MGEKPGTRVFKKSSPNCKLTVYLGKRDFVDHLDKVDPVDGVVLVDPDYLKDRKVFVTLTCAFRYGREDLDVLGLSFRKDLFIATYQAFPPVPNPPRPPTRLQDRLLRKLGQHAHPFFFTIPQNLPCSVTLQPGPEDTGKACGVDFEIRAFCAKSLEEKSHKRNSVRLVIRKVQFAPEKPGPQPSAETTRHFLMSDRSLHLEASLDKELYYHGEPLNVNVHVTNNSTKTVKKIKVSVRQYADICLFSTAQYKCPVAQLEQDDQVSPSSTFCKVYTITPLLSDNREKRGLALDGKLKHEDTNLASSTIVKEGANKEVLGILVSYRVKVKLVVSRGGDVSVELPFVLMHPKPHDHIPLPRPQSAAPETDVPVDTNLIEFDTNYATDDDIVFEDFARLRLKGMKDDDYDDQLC
T3 sequence (P32121 whole entry partner, one chain of several): as the sequence (P32121 whole entry partner) above

Consider `Cc1ccc(-n2ccc(C(F)(F)F)c2COc2c(F)cc(CCCO)cc2F)cn1` [Compound 48, 3-(3,5-difluoro-4-((1-(6-methylpyridin-3-yl)-3-(trifluoromethyl)-1H-pyrrol-2-yl)methoxy)phenyl)propan-1-ol trifluoroacetic acid], for which the values for the pEC50 in assay [1], in assay [2] and in assay [3] were 7.01, 7.01 and 7.52, respectively.
For the compound `Cc1ccc(-n2ccc(C(F)(F)F)c2COc2c(F)cc(CCC(=O)O)cc2F)cn1` [Compound 49, 3-(3,5-Difluoro-4-{[1-(6-methylpyridin-3-yl)-3-(trifluoromethyl)-1H-pyrrol-2-yl]methoxy}phenyl)propanoic acid], the figures for the pEC50 in assay [1], in assay [2] and in assay [3] were 5.91, 6.06 and 6.54, respectively.
The matching figures for `CCc1ccc(-n2ccc(C(F)(F)F)c2COc2ccc(CCC(=O)O)c(F)c2F)cn1` [Compound 58, 3-(4-[[1-(6-ethylpyridin-3-yl)-3-(trifluoromethyl)-1H-pyrrol-2-yl]methoxy]-2,3-difluorophenyl)propanoic acid]: 6.03, 6.05 and 6.79.
Turning to `CC(Cc1cc(F)c(OCc2c(C(F)(F)F)ccn2-c2ccc(Cl)cc2)c(F)c1)C(=O)O` (centres unmarked) [Compound 59, 3-(4-[[1-(4-chlorophenyl)-3-(trifluoromethyl)-1H-pyrrol-2-yl]methoxy]-3,5-difluorophenyl)-2-methylpropanoic acid], the pEC50 in assay [4] is 6.38; in assay [3], 6.54.
The matching figures for `Cc1ccc(-n2ccc(C(F)(F)F)c2COc2c(F)cc(CC(C)C(=O)O)cc2F)cc1` (centres unmarked) [Compound 60, 3-(3,5-difluoro-4-[[1-(4-methylphenyl)-3-(trifluoromethyl)-1H-pyrrol-2-yl]methoxy]phenyl)-2-methylpropanoic acid]: 6.26 and 6.73.
The matching figures for `CCc1ccc(-n2ccc(C(F)(F)F)c2COc2c(F)cc(CC(C)C(=O)O)cc2F)cc1` (centres unmarked) [Compound 61, 3-(4-[[1-(4-ethylphenyl)-3-(trifluoromethyl)-1H-pyrrol-2-yl]methoxy]-3,5-difluorophenyl)-2-methylpropanoic acid]: 6.19 and 6.63.
Regarding `Cc1ccc(-n2ccc(C(F)(F)F)c2COc2c(F)cc(CCC(=O)O)cc2F)cc1F` [Compound 62, 3-(3,5-difluoro-4-[[1-(3-fluoro-4-methylphenyl)-3-(trifluoromethyl)-1H-pyrrol-2-yl]methoxy]phenyl)propanoic acid], the pEC50 in assay [4] was 7.02; in assay [3], 6.58.
The matching figures for `Cc1ccc(-n2ccc(C(F)(F)F)c2COc2c(F)cc(CC(C)C(=O)O)cc2F)cc1F` (centres unmarked) [Compound 64, 3-(3,5-difluoro-4-[[1-(3-fluoro-4-methylphenyl)-3-(trifluoromethyl)-1H-pyrrol-2-yl]methoxy]phenyl)-2-methylpropanoic acid]: 6.58 and 6.67.
The matching figures for `CC(Cc1cc(F)c(OCc2c(C(F)(F)F)ccn2-c2ccc(F)cc2)c(F)c1)C(=O)O` (centres unmarked) [Compound 65, 3-(3,5-difluoro-4-[[1-(4-fluorophenyl)-3-(trifluoromethyl)-1H-pyrrol-2-yl]methoxy]phenyl)-2-methylpropanoic acid]: 6.09 and 6.26.
In the case of `Cc1ccc(-n2ccc(C(F)(F)F)c2COc2ccc(CCC(=O)O)c(C)c2C)cc1F` [Compound 66, 3-(4-{[1-(3-Fluoro-4-methylphenyl)-3-(trifluoromethyl)-1H-pyrrol-2-yl]methoxy}-2,3-dimethylphenyl)propanoic acid], the negative logarithm of the EC50 (pEC50) in assay [4] was 6.39; in assay [3], 6.50.
The matching figures for `O=C(O)CCc1cc(F)c(OCc2c(C(F)(F)F)ccn2-c2ccc(Cl)c(F)c2)c(F)c1` [Compound 67, 3-(4-[[1-(4-chloro-3-fluorophenyl)-3-(trifluoromethyl)-1H-pyrrol-2-yl]methoxy]-3,5-difluorophenyl)propanoic acid]: 6.69 and 6.43.
The matching figures for `Cc1c(CCC(=O)O)ccc(OCc2c(C(F)(F)F)ccn2-c2ccc(Cl)c(F)c2)c1C` [Compound 68, 3-(4-{[1-(4-Chloro-3-fluorophenyl)-3-(trifluoromethyl)-1H-pyrrol-2-yl]methoxy}-2,3-dimethylphenyl)propanoic acid]: 6.51 and 6.45.
Turning to `CC(Cc1cc(F)c(OCc2c(C(F)(F)F)ccn2-c2ccc(Cl)c(F)c2)c(F)c1)C(=O)O` (centres unmarked) [Compound 69, 3-(4-[[1-(4-chloro-3-fluorophenyl)-3-(trifluoromethyl)-1H-pyrrol-2-yl]methoxy]-3,5-difluorophenyl)-2-methylpropanoic acid], the pEC50 in assay [4] is 6.20; in assay [3], 6.31.
The matching figures for `O=C(O)CCc1cc(F)c(OCc2c(C(F)(F)F)ccn2-c2ccc(Cl)cc2)c(F)c1` [Compound 70, 3-(4-((1-(4-chlorophenyl)-3-(trifluoromethyl)-1H-pyrrol-2-yl)methoxy)-3,5-difluorophenyl)propanoic acid]: 7.16 and 7.10.
The matching figures for `O=C(O)CCc1cc(F)c(OCc2c(C(F)(F)F)ccn2-c2ccc(Cl)cc2F)c(F)c1` [Compound 71, 3-(4-{[1-(4-Chloro-2-fluorophenyl)-3-(trifluoromethyl)-1H-pyrrol-2-yl]methoxy}-3,5-difluorophenyl)propanoic acid]: 6.20 and 6.75.
Take `Cc1ccc(-n2ccc(C(F)(F)F)c2COc2c(F)cc(CCC(=O)O)cc2F)c(F)c1` [Compound 72, 3-(3,5-Difluoro-4-{[1-(2-fluoro-4-methylphenyl)-3-(trifluoromethyl)-1H-pyrrol-2-yl]methoxy}phenyl)propanoic acid]: the results for the pEC50 in assay [4] and in assay [3] were 6.20 and 6.93, respectively.

One may read the pEC50 as the EC50 on a negative log10 scale, so that one unit is a factor of ten.
